Data taken from patent US9012470B2 (Dart NeuroScience (Cayman) Ltd., priority 2010, dated 2015).
Counter-ions that a name gives are not always drawn.

Test system: benzodiazepine site of GABAA
Assay: Binding assay, benzodiazepine site of GABAA (binding assay 1: rat brain, (3H)-flunitrazepam; binding assay 2: bovine hippocampal membranes, [3H]-RY80)
Details: radioligand binding; for % Inhibition at 0.1 μM: 0.1 μM test compound; for % Inhibition at 10 μM: 10 μM test compound
Experimental: The ability of a compound disclosed herein to act as ligand to the benzodiazepine site of GABAA can be determined using pharmacological models which are well known in the art using the following assay.
Binding assay 1: Whole brain (except cerebellum) of male Wistar derived rats weighing 175±25 g were used to prepare GABAA central benzodiazepine receptor in Na—K phosphate buffer pH 7.4. A 5 mg aliquot was incubated with 1 nM (^3H)-flunitrazepam for 60 minutes at 25° C. Experiments were performed in the presence or absence of 30 μM of GABA. Non-specific binding was estimated in the presence of 10 μM of diazepam. Membranes were filtered and washed, the filters were then counted to determine (^3H)-flunitrazepam specifically bound. Test compounds were tested in duplicate according to the required concentrations (Damm, H. W., et al. (1978) Res. Comm. Chem. Pathol. Pharmacol. 22: 597-560 incorporated herein in its entirety; Speth, R. C., et al. (1979) Life Sci. 24: 351-357 incorporated herein in its entirety).
Receptor Source: Bovine hippocampal membranes
Radioligand: [3H]-RY80 (40-80 Ci/mmol)
Final ligand concentration—[0.8 nM]
Non-specific Determinant: L-655,708—[0.5 μM]
Binding assay 2 followed procedures based on Li and Szabo (Li M., Szabo A., Rosenberg H. Evaluation of native GABAA receptors containing an α5 subunit. Eur. J. Pharmacol. 413: 63-72 (2001)). Incubation Conditions: Reactions are carried out in 50 mM Tris-Citrate (pH 7.8) containing 200 mM NaCl at 0-4° C. for 60 minutes. The reaction is terminated by rapid vacuum filtration onto glass fiber filters. Radioactivity trapped onto the filters is determined and compared to control values in order to ascertain any interactions of test compound with the benzodiazepine (central) binding site.

| Structure (SMILES) | % Inhibition at 0.1 μM | % Inhibition at 10 μM |
| --- | --- | --- |
| O=C(Nc1ccccc1)n1cc2[nH]cc3c(=O)n(-c4ccccc4)nc-3c2c1 [Compound 13k, 3-Oxo-N,2-diphenyl-2,3-dihydropyrazolo[3,4-d]pyrrolo[3,4-b]pyridine-7(5H)-carboxamide] | B (B indicates % inhibition <80% and >20%) | A (A indicates % inhibition >80%) |
| CN(C)C(=O)n1ncc2c3nn(-c4ccccc4)c(=O)c-3c[nH]c21 [Compound 7c, N,N-dimethyl-3-oxo-2-phenyl-2,3-dihydrodipyrazolo[3,4-b:3′,4′-d]pyridine-6(5H)-carboxamide. TFA] | – | B (B indicates % inhibition <80% and >20%) |
| CCNC(=O)n1ncc2c3nn(-c4ccc(F)cc4F)c(=O)c-3c[nH]c21 [Compound 6ao, 2-(2,4-difluorophenyl)-N-ethyl-3-oxo-2,3-dihydrodipyrazolo[3,4-b:3′,4′-d]pyridine-6(5H)-carboxamide] | B (B indicates % inhibition <80% and >20%) | A (A indicates % inhibition >80%) |
| O=C(N1CCCC1)n1ncc2c3nn(-c4ccccc4)c(=O)c-3c[nH]c21 [Compound 6k, 2-phenyl-6-(pyrrolidine-1-carbonyl)-5,6-dihydrodipyrazolo[3,4-b:3′,4′-d]pyridin-3(2H)-one] | C (C indicates % inhibition <20%) | C (C indicates % inhibition <20%) |
| CCCCNC(=O)n1ncc2c3nn(-c4cccc(C(F)(F)F)c4)c(=O)c-3c[nH]c21 [Compound 6aj, N-butyl-3-oxo-2-(3-(trifluoromethyl)phenyl)-2,3-dihydrodipyrazolo[3,4-b:3′,4′-d]pyridine-6(5H)-carboxamide] | C (C indicates % inhibition <20%) | B (B indicates % inhibition <80% and >20%) |
| O=C(Nc1ccccc1)n1ccc2c3nn(-c4ccccc4)c(=O)c-3c[nH]c21 [Compound 17d, 3-Oxo-N,2-diphenyl-2,3-dihydropyrazolo[3,4-d]pyrrolo[2,3-b]pyridine-6(5H)-carboxamide] | C (C indicates % inhibition <20%) | C (C indicates % inhibition <20%) |
| CCCCNC(=O)n1ncc2c3nn(-c4ccc(C(F)(F)F)cc4)c(=O)c-3c[nH]c21 [Compound 6ah, N-butyl-3-oxo-2-(4-(trifluoromethyl)phenyl)-2,3-dihydrodipyrazolo[3,4-b:3′,4′-d]pyridine-6(5H)-carboxamide] | – | B (B indicates % inhibition <80% and >20%) |
| CC(C)NC(=O)n1ncc2c3nn(-c4ccc(Br)cc4)c(=O)c-3c[nH]c21 [Compound 6x, 2-(4-bromophenyl)-N-isopropyl-3-oxo-2,3-dihydrodipyrazolo[3,4-b:3′,4′-d]pyridine-6(5H)-carboxamide] | – | A (A indicates % inhibition >80%) |
| CCNC(=O)n1ccc2c3nn(-c4ccccc4)c(=O)c-3c[nH]c21 [Compound 17b, N-Ethyl-3-oxo-2-phenyl-2,3-dihydropyrazolo[3,4-d]pyrrolo[2,3-b]pyridine-6(5H)-carboxamide] | C (C indicates % inhibition <20%) | B (B indicates % inhibition <80% and >20%) |
| CCCCNC(=O)n1ncc2c3nn(-c4cccc(Cl)c4)c(=O)c-3c[nH]c21 [Compound 6ac, N-butyl-2-(3-chlorophenyl)-3-oxo-2,3-dihydrodipyrazolo[3,4-b:3′,4′-d]pyridine-6(5H)-carboxamide] | – | A (A indicates % inhibition >80%) |
| CNC(=O)n1ncc2c3nn(-c4ccc(Cl)cn4)c(=O)c-3c[nH]c21 [Compound 6ax, 2-(5-chloropyridin-2-yl)-N-methyl-3-oxo-2,3-dihydrodipyrazolo[3,4-b:3′,4′-d]pyridine-6(5H)-carboxamide] | – | A (A indicates % inhibition >80%) |
| CNC(=O)n1ncc2c3nn(-c4cccc(Cl)c4)c(=O)c-3c[nH]c21 [Compound 6ab, 2-(3-chlorophenyl)-N-methyl-3-oxo-2,3-dihydrodipyrazolo[3,4-b:3′,4′-d]pyridine-6(5H)-carboxamide] | – | A (A indicates % inhibition >80%) |
| CC(C)CCNC(=O)n1ncc2c3nn(-c4ccc(F)cc4F)c(=O)c-3c[nH]c21 [Compound 6ap, 2-(2,4-difluorophenyl)-N-isopentyl-3-oxo-2,3-dihydrodipyrazolo[3,4-b:3′,4′-d]pyridine-6(5H)-carboxamide] | C (C indicates % inhibition <20%) | A (A indicates % inhibition >80%) |
| CCNC(=S)n1ncc2c3nn(-c4ccc(C(C)C)cc4)c(=O)c-3c[nH]c21 [Compound 6au, N-ethyl-2-(4-isopropylphenyl)-3-oxo-2,3-dihydrodipyrazolo[3,4-b:3′,4′-d]pyridine-6(5H)-carbothioamide] | B (B indicates % inhibition <80% and >20%) | A (A indicates % inhibition >80%) |
| CCNC(=O)n1cc2[nH]cc3c(=O)n(-c4ccc(Cl)cn4)nc-3c2c1 [Compound 13h, 2-(5-chloropyridin-2-yl)-N-ethyl-3-oxo-2,3-dihydropyrazolo[3,4-d]pyrrolo[3,4-b]pyridine-7(5H)-carboxamide] | A (A indicates % inhibition >80%) | A (A indicates % inhibition >80%) |
| CCCCNC(=O)n1ncc2c3nn(-c4ccc(Cl)cc4F)c(=O)c-3c[nH]c21 [Compound 6ak, N-butyl-2-(4-chloro-2-fluorophenyl)-3-oxo-2,3-dihydrodipyrazolo[3,4-b:3′,4′-d]pyridine-6(5H)-carboxamide] | C (C indicates % inhibition <20%) | A (A indicates % inhibition >80%) |
| CC(C)NC(=O)n1ccc2c3nn(-c4ccccc4)c(=O)c-3c[nH]c21 [Compound 17c, N-Isopropyl-3-oxo-2-phenyl-2,3-dihydropyrazolo[3,4-d]pyrrolo[2,3-b]pyridine-6(5H)-carboxamide] | C (C indicates % inhibition <20%) | C (C indicates % inhibition <20%) |
| CC(C)NC(=O)n1ncc2c3nn(-c4ccc(Cl)c(C(F)(F)F)c4)c(=O)c-3c[nH]c21 [Compound 6t, 2-(4-chloro-3-(trifluoromethyl)phenyl)-N-isopropyl-3-oxo-2,3-dihydrodipyrazolo[3,4-b:3′,4′-d]pyridine-6(5H)-carboxamide] | – | C (C indicates % inhibition <20%) |
| CNC(=O)n1ncc2c3nn(-c4ccc(Br)cc4)c(=O)c-3c[nH]c21 [Compound 6az, 2-(4-bromophenyl)-N-methyl-3-oxo-2,3-dihydrodipyrazolo[3,4-b:3′,4′-d]pyridine-6(5H)-carboxamide] | – | A (A indicates % inhibition >80%) |
| CC(C)NC(=O)n1ncc2c3nn(-c4ccccc4)c(=O)c-3c[nH]c21 [Compound 6a, N-isopropyl-3-oxo-2-phenyl-2,3-dihydrodipyrazolo[3,4-b:3′,4′-d]pyridine-6(5H)-carboxamide] | C (C indicates % inhibition <20%) | B (B indicates % inhibition <80% and >20%) |
| CC(C)CCNC(=O)n1ncc2c3nn(-c4ccccc4)c(=O)c-3c[nH]c21 [Compound 6g, N-isopentyl-3-oxo-2-phenyl-2,3-dihydrodipyrazolo[3,4-b:3′,4′-d]pyridine-6(5H)-carboxamide] | B (B indicates % inhibition <80% and >20%) | A (A indicates % inhibition >80%) |
| CCNC(=O)n1ncc2c3nn(-c4cc(C(F)(F)F)cc(C(F)(F)F)c4)c(=O)c-3c[nH]c21 [Compound 6q, 2-(3,5-bis(trifluoromethyl)phenyl)-N-ethyl-3-oxo-2,3-dihydrodipyrazolo[3,4-b:3′,4′-d]pyridine-6(5H)-carboxamide] | – | C (C indicates % inhibition <20%) |
| CC(C)NC(=O)n1ncc2c3nn(-c4cc(C(F)(F)F)cc(C(F)(F)F)c4)c(=O)c-3c[nH]c21 [Compound 6r, 2-(3,5-bis(trifluoromethyl)phenyl)-N-isopropyl-3-oxo-2,3-dihydrodipyrazolo[3,4-b:3′,4′-d]pyridine-6(5H)-carboxamide] | – | B (B indicates % inhibition <80% and >20%) |
| CCNC(=O)n1ncc2c3nn(-c4ccccc4F)c(=O)c-3c[nH]c21 | B (B indicates % inhibition <80% and >20%) | A (A indicates % inhibition >80%) |
| CC(C)NC(=O)n1ncc2c3nn(-c4ccc(Cl)cn4)c(=O)c-3c[nH]c21 [Compound 6aw, 2-(5-chloropyridin-2-yl)-N-isopropyl-3-oxo-2,3-dihydrodipyrazolo[3,4-b:3′,4′-d]pyridine-6(5H)-carboxamide] | – | B (B indicates % inhibition <80% and >20%) |
| CC(C)NC(=O)n1ncc2c3nn(-c4ccc(Cl)cc4)c(=O)c-3c[nH]c21 [Compound 6p, 2-(4-chlorophenyl)-N-isopropyl-3-oxo-2,3-dihydrodipyrazolo[3,4-b:3′,4′-d]pyridine-6(5H)-carboxamide] | C (C indicates % inhibition <20%) | C (C indicates % inhibition <20%) |
